Source: patent US20250179073A1, “TRICYCLIC HETEROCYCLE COMPOUNDS AS IAP ANTAGONISTS” (Ascentage Pharma (Suzhou) Co., Ltd., priority 2022, published 2025)

Tested on: MDA-MB-231 cells
Assay: Cell proliferation assay (CellTiter-Glo), MDA-MB-231
Format: cell-based
Settings: 72 h treatment, Celltiter-Glo luminescence
Description: Example 238: Cell Proliferation Assay
MDA-MB-231 and EVSA-T cells (10000 cells/well) were plated onto 96-well plates (Corning, Cat #3917) in 95 μL of medium (RPMI-1640 containing 10% FBS and MEM containing 10% FBS, respectively). Compounds with various concentrations ([…]) were added to the wells. After treatment for 72 h, 30 μL of Celltiter-Glo reagent (Promega, Cat #G7573) was added and incubated at room temperature for 15 min, then the luminescent signal was determined using a microplate reader (Biotek, SynergyH1). The inhibitor dose-response curves were analyzed using normalized IC50 regression curve fitting with control based normalization.

| IC50 (Homo sapiens, MDA-MB-231, 72 h) [nM] | IC50 [nM] | Structure (SMILES) |
| --- | --- | --- |
| 450 |  | C[C@@H]1CN(CC(=O)N2CC(C)(C)c3c2cc(Cc2ccc(F)cc2)c2nnc(C(N)=O)n32)[C@@H](CN2CCOC[C@H]2C)CN1 [Compound 145, 4-(4-fluorobenzyl)-8,8-dimethyl-6-(2-((2R,5R)-5-methyl-2-(((R)-3-methylmorpholino)methyl)piperazin-1-yl)acetyl)-7,8-dihydro-6H-pyrrolo[2,3-e][1,2,4]triazolo[4,3-a]pyridine-1-carboxamide] |
| 350 |  | C[C@@H]1CN(CC(=O)N2CC(C)(C)c3c2cc(Cc2ccc(F)cc2)c2nn(C(CO)CO)c(=O)n32)[C@@H](CN2CCOC[C@H]2C)CN1 [Compound 268, 2-(1,3-dihydroxypropan-2-yl)-4-(4-fluorobenzyl)-8,8-dimethyl-6-(2-((2R,5R)-5-methyl-2-(((R)-3-methylmorpholino)methyl)piperazin-1-yl)acetyl)-2,6,7,8-tetrahydro-1H-pyrrolo[2,3-e][1,2,4]triazolo[4,3-a]pyridin-1-one] |
| 560 |  | C[C@@H]1CN(CC(=O)N2CC(C)(C)c3c2cc(Cc2ccc(F)cc2)c2ncnn32)C(CN2CCN(CC#N)C3CC32)CN1 (stereo in doubt) [Compound 213, 2-(5-(((2S,5R)-1-(2-(4-(4-fluorobenzyl)-8,8-dimethyl-7,8-di hydro-6H-pyrrolo[2,3-e][1,2,4]triazolo[1,5-a]pyridin-6-yl)-2-oxoethyl)-5-methylpiperazin-2-yl)methyl)-2,5-diazabicyclo[4.1.0]heptan-2-yl)acetonitrile] |
| 190 |  | C[C@@H]1CN(CC(=O)N2CC(C)(C)c3c2cc(N2CCCc4cc(F)ccc42)c2ncnn32)[C@@H](CN2CCOC[C@H]2C)CN1 [Compound 168, 1-(4-(6-fluoro-3,4-dihydroquinolin-1(2H)-yl)-8,8-dimethyl-7,8-dihydro-6H-pyrrolo[2,3-e][1,2,4]triazolo[1,5-a]pyridin-6-yl)-2-((2R,5R)-5-methyl-2-(((R)-3-methylmorpholino)methyl)piperazin-1-yl)ethan-1-one] |
| 390 |  | C[C@@H]1CN(CC(=O)N2CC(C)(C)c3c2cc(Cc2ccc(F)cc2)c2c(Cl)cnn32)[C@@H](CN2CCOC[C@H]2C)CN1 [Compound 106, 1-(3-chloro-4-(4-fluorobenzyl)-8,8-dimethyl-7,8-dihydro-6H-pyrazolo[1,5-a]pyrrolo[2,3-e]pyridin-6-yl)-2-((2R,5R)-5-methyl-2-(((R)-3-methylmorpholino)methyl)piperazin-1-yl)ethan-1-one] |
| 9 |  | C[C@@H]1CN(CC(=O)N2CC(C)(C)c3c2cc(Cc2ccc(F)cc2F)c2nn(CC(C)(C)O)c(=O)n32)[C@@H](CN2CCOC[C@H]2C)CN1 [Compound 274, 4-(2,4-difluorobenzyl)-2-(2-hydroxy-2-methylpropyl)-8,8-dimethyl-6-(2-((2R,5R)-5-methyl-2-(((R)-3-methylmorpholino)methyl)piperazin-1-yl)acetyl)-2,6,7,8-tetrahydro-1H-pyrrolo[2,3-e][1,2,4]triazolo[4,3-a]pyridin-1-one] |
| 47 |  | C[C@@H]1CN(CC(=O)N2CC(C)(C)c3c2cc(Cc2ccc(F)cc2)c2nc(N4CCNC4=O)nn32)[C@@H](CN2CCOC[C@H]2C)CN1 [Compound 248, 1-(4-(4-fluorobenzyl)-8,8-dimethyl-6-(2-((2R,5R)-5-methyl-2-(((R)-3-methylmorpholino)methyl)piperazin-1-yl)acetyl)-7,8-dihydro-6H-pyrrolo[2,3-e][1,2,4]triazolo[1,5-a]pyridin-2-yl)imidazolidin-2-one] |
| 180 |  | C[C@@H]1CN(CC(=O)N2CC(C)(C)c3c2cc(Cc2ccc(F)cc2)c2nccnc32)[C@@H](CN2CCOC[C@H]2C)CN1 [Example 26, 1-(5-(4-fluorobenzyl)-9,9-dimethyl-8,9-dihydro-7H-pyrrolo[3,2-f]quinoxalin-7-yl)-2-((2R,5R)-5-methyl-2-(((R)-3-methylmorpholino)methyl)piperazin-1-yl)ethan-1-one] |
| 195 |  | [2H]C([2H])([2H])NC(=O)c1nc2c(Cc3ccc(F)cc3)cc3c(n2n1)C(C)(C)CN3C(=O)CN1C[C@@H](C)NC[C@@H]1CN1CCOC[C@H]1C [Compound 258, 4-(4-fluorobenzyl)-8,8-dimethyl-N-(methyl-d3)-6-(2-((2R,5R)-5-methyl-2-(((R)-3-methylmorpholino)methyl)piperazin-1-yl)acetyl)-7,8-dihydro-6H-pyrrolo[2,3-e][1,2,4]triazolo[1,5-a]pyridine-2-carboxamide] |
| > 10000 |  | C[C@@H]1CN(CC(=O)N2CC(C)(C)c3c2cc(Cc2ccc(F)cc2)c2nc(NS(C)(=O)=O)nn32)[C@@H](CN2CCOC[C@H]2C)CN1 [Example 15, N-(4-(4-fluorobenzyl)-8,8-dimethyl-6-(2-((2R,5R)-5-methyl-2-(((R)-3-methylmorpholino)methyl)piperazin-1-yl)acetyl)-7,8-dihydro-6H-pyrrolo[2,3-e][1,2,4]triazolo[1,5-a]pyridin-2-yl)methanesulfonamide] |
|  | 80 | C[C@@H]1CN(CC(=O)N2CC(C)(C)c3c2cc(Cc2ccc(F)cc2)c2nc(N4C[C@@H](O)[C@H](O)C4)nn32)[C@@H](CN2CCOC[C@H]2C)CN1 [Compound 188, 1-(2-((3R,4R)-3,4-dihydroxypyrrolidin-1-yl)-4-(4-fluorobenzyl)-8,8-dimethyl-7,8-dihydro-6H-pyrrolo[2,3-e][1,2,4]triazolo[1,5-a]pyridin-6-yl)-2-((2R,5R)-5-methyl-2-(((R)-3-methylmorpholino)methyl)piperazin-1-yl)ethan-1-one] |
| > 10000 |  | C[C@@H]1CN(CC(=O)N2CC(C)(C)c3c2cc(Cc2ccc(F)cc2)c2nc(C(=O)O)nn32)[C@@H](CN2CCOC[C@H]2C)CN1 [Compound 197, 4-(4-fluorobenzyl)-8,8-dimethyl-6-(2-((2R,5R)-5-methyl-2-(((R)-3-methylmorpholino)methyl)piperazin-1-yl)acetyl)-7,8-dihydro-6H-pyrrolo[2,3-e][1,2,4]triazolo[1,5-a]pyridine-2-carboxylic acid] |
| 360 |  | C[C@@H]1CN(CC(=O)N2CC(C)(C)c3c2cc(Cc2ccc(F)cc2)c2nn(CC(C)(C)O)c(=O)n32)[C@@H](CN2C[C@@H]3C[C@H]2CO3)CN1 [Compound 283, 6-(2-((2R,5R)-2-(((1S,4S)-2-oxa-5-azabicyclo[2.2.1]heptan-5-yl)methyl)-5-methylpiperazin-1-yl)acetyl)-4-(4-fluorobenzyl)-2-(2-hydroxy-2-methylpropyl)-8,8-dimethyl-2,6,7,8-tetrahydro-1H-pyrrolo[2,3-e][1,2,4]triazolo[4,3-a]pyridin-1-one] |
| 490 |  | C[C@@H]1CN(CC(=O)N2CC(C)(C)c3c2cc(Cc2ccc(F)cc2)c2cc(C(F)(F)F)nn32)[C@@H](CN2CCOC[C@H]2C)CN1 [Compound 150, 1-(4-(4-fluorobenzyl)-8,8-dimethyl-2-(trifluoromethyl)-7,8-dihydro-6H-pyrazolo[1,5-a]pyrrolo[2,3-e]pyridin-6-yl)-2-((2R,5R)-5-methyl-2-(((R)-3-methylmorpholino)methyl)piperazin-1-yl)ethan-1-one] |
| 320 |  | C[C@@H]1CN(CC(=O)N2CC(C)(C)c3c2cc(Cc2ccc(F)cc2)c2nc(C(F)(F)F)cn32)C(Cn2ccnc2C(F)(F)F)CN1 (stereo in doubt) [Compound 177, 1-(4-(4-fluorobenzyl)-8,8-dimethyl-2-(trifluoromethyl)-7,8-dihydro-6H-imidazo[1,2-a]pyrrolo[2,3-e]pyridin-6-yl)-2-((2S,5R)-5-methyl-2-((2-(trifluoromethyl)-1H-imidazol-1-yl)methyl)piperazin-1-yl)ethan-1-one] |
| 140 |  | C[C@@H]1CN(CC(=O)N2CC(C)(C)c3c2cc(Cc2ccc(F)cc2)c2cnc(C4CCOCC4)n32)[C@@H](CN2CCOC[C@H]2C)CN1 [Example 7, 1-(4-(4-fluorobenzyl)-8,8-dimethyl-1-(tetrahydro-2H-pyran-4-yl)-7,8-dihydro-6H-imidazo[1,5-a]pyrrolo[2,3-e]pyridin-6-yl)-2-((2R,5R)-5-methyl-2-(((R)-3-methylmorpholino)methyl)piperazin-1-yl)ethan-1-one] |
| 87 |  | C[C@@H]1CN(CC(=O)N2CC(C)(C)c3c2cc(Cc2ccc(F)cc2)c2ncnn32)[C@@H](CN2CCC(F)(F)C[C@H]2C)CN1 [Compound 75, 2-((2R,5R)-2-(((R)-4,4-difluoro-2-methylpiperidin-1-yl)methyl)-5-methylpiperazin-1-yl)-1-(4-(4-fluorobenzyl)-8,8-dimethyl-7,8-dihydro-6H-pyrrolo[2,3-e][1,2,4]triazolo[1,5-a]pyridin-6-yl)ethan-1-one] |
| 26 |  | C[C@@H]1CN(CC(=O)N2CC(C)(C)c3c2cc(Cc2ccc(F)cc2)c2nn(CC(C)(C)O)c(=O)n32)[C@@H](CN2CCC(F)(F)C[C@H]2C)CN1 [Compound 281, 6-(2-((2R,5R)-2-(((R)-4,4-difluoro-2-methylpiperidin-1-yl)methyl)-5-methylpiperazin-1-yl)acetyl)-4-(4-fluorobenzyl)-2-(2-hydroxy-2-methylpropyl)-8,8-dimethyl-2,6,7,8-tetrahydro-1H-pyrrolo[2,3-e][1,2,4]triazolo[4,3-a]pyridin-1-one] |
| 80 |  | C[C@@H]1CN(CC(=O)N2CC(C)(C)c3c2cc(Cc2ccc(F)cc2)c2ncnn32)[C@@H](CN2CCNC(=O)[C@H]2C)CN1 [Compound 191, (R)-4-(((2R,5R)-1-(2-(4-(4-fluorobenzyl)-8,8-dimethyl-7,8-dihydro-6H-pyrrolo[2,3-e][1,2,4]triazolo[1,5-a]pyridin-6-yl)-2-oxoethyl)-5-methylpiperazin-2-yl)methyl)-3-methylpiperazin-2-one] |
